Reference: article PMC7914897, “Cytotoxic Potential of a-Azepano- and 3-Amino-3,4-SeCo-Triterpenoids” (International Journal of Molecular Sciences, 2021)
Read-outs that look alike come from different tables or passages of the source.

Assays:
SNB-75 (CNS cancer) = test: NCI-60 screen (SRB, 48 h); settings: Homo sapiens; for GI50: SNB-75; for IC (TGI): SNB-75, 48 h, read-out: TGI; for CC50: SNB-75, read-out: LC50
SK-OV-3 (Ovarian cancer) = test: NCI-60 screen (SRB, 48 h); settings: Homo sapiens; for GI50: SK-OV-3; for IC (TGI): SK-OV-3, 48 h, read-out: TGI; for CC50: SK-OV-3, read-out: LC50
[1] = test system: NCI/ADR-RES (Ovarian cancer); test: NCI-60 screen (SRB, 48 h); settings: Homo sapiens; for IC (TGI): 48 h, read-out: TGI
[2] = test system: MDA-MB-468 (Breast cancer); test: cells; settings: Homo sapiens; for GI50: MDA-MB-468; for IC (TGI): MDA-MB-468, 48 h, read-out: TGI; for CC50: MDA-MB-468, read-out: LC50
ACHN (Renal cancer) = test: NCI-60 screen (SRB, 48 h); settings: Homo sapiens; for IC (TGI): 48 h, read-out: TGI; for CC50: read-out: LC50
[3] = test system: NIH 3T3 (non-malignant mouse fibroblasts); test: SRB cytotoxicity assay, 72 h; type: cell-based; settings: NIH 3T3, 72 h, cut-off 30 µM
Summary of the method: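 EC50 values reflect percent surviving cells versus untreated controls, read at 570 nm after SRB staining of TCA-fixed monolayers. Dosing spanned 0–30 µM over 72 h.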

A498 (Renal cancer) = test: NCI-60 screen (SRB, 48 h); settings: Homo sapiens; for GI50: A498; for IC (TGI): A498, 48 h, read-out: TGI; for CC50: A498, read-out: LC50
Colon Cancer subpanel = test: NCI-60 screen, subpanel; settings: Homo sapiens; for IC (TGI): 48 h, read-out: TGI MG_MID; for GI50: read-out: GI50 MG_MID; for CC50: read-out: LC50 MG_MID
EKVX (NSC lung cancer) = test: NCI-60 screen (SRB, 48 h); settings: Homo sapiens; for IC (TGI): 48 h, read-out: TGI; for CC50: read-out: LC50
HCT-116 (Colon cancer) = test: NCI-60 screen (SRB, 48 h); settings: Homo sapiens; for GI50: HCT-116; for activity at 10 µM: read-out: Growth % of the Most Sensitive Cell Lines
Renal Cancer subpanel = test: NCI-60 screen, subpanel; settings: Homo sapiens; for IC (TGI): 48 h, read-out: TGI MG_MID; for GI50: read-out: GI50 MG_MID; for CC50: read-out: LC50 MG_MID
[4] = test system: MDA-MB-31/ATCC (Breast cancer); test: NCI-60 screen (SRB, 48 h); settings: Homo sapiens; for IC (TGI): 48 h, read-out: TGI
HOP-62 (NSC lung cancer) = test: NCI-60 screen (SRB, 48 h); settings: Homo sapiens; for GI50: HOP-62; for IC (TGI): HOP-62, 48 h, read-out: TGI
BT-549 (Breast cancer) = test: NCI-60 screen (SRB, 48 h); type: cell-based; settings: Homo sapiens; for GI50: BT-549; for IC (TGI): BT-549, 48 h
PC-3 (Prostate cancer) = test: NCI-60 screen (SRB, 48 h); settings: Homo sapiens; for GI50: PC-3; for IC (TGI): PC-3, 48 h, read-out: TGI; for CC50: PC-3, read-out: LC50
OVCAR-8 (Ovarian cancer) = test: NCI-60 screen (SRB, 48 h); settings: Homo sapiens; for GI50: OVCAR-8; for IC (TGI): OVCAR-8, 48 h, read-out: TGI
[5] = test system: NCI-H322M (NSC lung cancer); test: NCI-60 screen (SRB, 48 h); settings: Homo sapiens; for IC (TGI): 48 h, read-out: TGI; for CC50: read-out: LC50
SN12C (Renal cancer) = test: NCI-60 screen (SRB, 48 h); settings: Homo sapiens; for IC (TGI): 48 h, read-out: TGI
[6] = test system: panel of approximately 60 cancer cell lines; test: NCI-60 screen (SRB, 48 h), full panel; settings: for Positive Cytostatic Effect (cell lines with percent growth 0 to 50 / total) / Positive Cytotoxic Effect (cell lines with percent growth < 0 / total) / number of cancer cell lines the compound was active against: 1 dose 10 µM; for activity at 10 µM / IC (TGI): 48 h; for IC (TGI): read-out: TGI MG_MID60, average over all cell lines
786-0 (Renal cancer) = test: NCI-60 screen (SRB, 48 h); settings: for Growth % of the Most Sensitive Cell Lines: 786-0, 1 dose 10 µM; for GI50: 786-0; for IC (TGI): 786-0, 48 h, read-out: TGI
OVCAR-4 (Ovarian cancer) = test: NCI-60 screen (SRB, 48 h); type: cell-based; settings: Homo sapiens; for IC (TGI): OVCAR-4, 48 h; for GI50 / CC50: OVCAR-4; for CC50: read-out: LC50 (the source's name)
UACC-62 (Melanoma) = test: NCI-60 screen (SRB, 48 h); settings: Homo sapiens; for GI50: UACC-62; for IC (TGI): UACC-62, 48 h, read-out: TGI
[7] = Homo sapiens, read-out: Mean Growth, %
[8] = Homo sapiens, read-out: Range of Growth, %
[9] = Homo sapiens, read-out: GI50 MG_MID60
[10] = Homo sapiens, read-out: GI50 against all human tumor cell lines
[11] = Homo sapiens, read-out: GI50 against the most sensitive cell lines

Cc1ccc(S(=O)(=O)OC[C@@]2(C)CC[C@]3(C)CC[C@]4(C)C(=C3C2)C=C[C@@H]2[C@@]3(C)CCCNC(C)(C)[C@@H]3CC[C@]24C)cc1 [Compound 16]
GI50 (SNB-75 (CNS cancer)): 1.61 µM | IC (TGI) (SNB-75 (CNS cancer)): 3.1 µM | CC50 (SNB-75 (CNS cancer)): 5.97 µM | GI50 (SK-OV-3 (Ovarian cancer)): 1.79 µM | IC (TGI) (SK-OV-3 (Ovarian cancer)): 3.25 µM | CC50 (SK-OV-3 (Ovarian cancer)): 5.91 µM | GI50 [1]: 2.05 µM | IC (TGI) [1]: 4.59 µM | CC50 ([1]; read-out: LC50): > 100 µM | GI50 [2]: 1.59 µM | IC (TGI) [2]: 3.22 µM | CC50 [2]: 6.51 µM | GI50 (ACHN (Renal cancer)): 1.72 µM | IC (TGI) (ACHN (Renal cancer)): 3.1 µM | CC50 (ACHN (Renal cancer)): 5.5 µM | EC50 ([3]; Mus musculus, NIH3T3, read-out: EC50): 2.45 ± 0.1 µM | GI50 (A498 (Renal cancer)): 1.71 µM | IC (TGI) (A498 (Renal cancer)): 3.13 µM | CC50 (A498 (Renal cancer)): 5.74 µM | IC (TGI) (Colon Cancer subpanel): 3.3 µM | GI50 (Colon Cancer subpanel): 1.64 µM | CC50 (Colon Cancer subpanel): 6.94 µM | GI50 (EKVX (NSC lung cancer)): 1.7 µM | IC (TGI) (EKVX (NSC lung cancer)): 3.29 µM | CC50 (EKVX (NSC lung cancer)): 6.35 µM | GI50 (HCT-116 (Colon cancer)): 1.54 µM | activity at 10 µM (HCT-116 (Colon cancer); HCT-116, 48 h): -91.5% | IC (TGI) (Renal Cancer subpanel): 3.19 µM | GI50 (Renal Cancer subpanel): 1.67 µM | CC50 (Renal Cancer subpanel): 5.92 µM | GI50 [4]: 1.98 µM | IC (TGI) [4]: 3.91 µM | GI50 (HOP-62 (NSC lung cancer)): 1.84 µM | IC (TGI) (HOP-62 (NSC lung cancer)): 3.59 µM | GI50 (BT-549 (Breast cancer)): 1.48 µM | IC (TGI) (BT-549 (Breast cancer)): 3.14 µM | GI50 (PC-3 (Prostate cancer)): 1.53 µM | IC (TGI) (PC-3 (Prostate cancer)): 2.98 µM | CC50 (PC-3 (Prostate cancer)): 5.82 µM | GI50 (OVCAR-8 (Ovarian cancer)): 2.12 µM | IC (TGI) (OVCAR-8 (Ovarian cancer)): 4.57 µM | GI50 [5]: 1.62 µM | IC (TGI) [5]: 3.01 µM | CC50 [5]: 5.62 µM | GI50 (SN12C (Renal cancer)): 1.79 µM | IC (TGI) (SN12C (Renal cancer)): 3.41 µM | Positive Cytostatic Effect (cell lines with percent growth 0 to 50 / total) [6]: 12/60 | Positive Cytotoxic Effect (cell lines with percent growth < 0 / total) [6]: 31/60 | number of cancer cell lines the compound was active against [6]: 40 cell lines | activity at 10 µM [6, 7]: -0.81% | activity at 10 µM [6, 8]: -99.2 to 104% | IC (TGI) ([6]; Homo sapiens): 3.52 µM | GI50 [6, 9]: 1.72 µM | GI50 [6, 10]: < 3 µM | GI50 [6, 11]: 0.2 to 0.94 µM | Growth % of the Most Sensitive Cell Lines (786-0 (Renal cancer)): −90.69% | GI50 (786-0 (Renal cancer); Homo sapiens): 1.84 µM | IC (TGI) (786-0 (Renal cancer); Homo sapiens): 3.51 µM | IC (TGI) (OVCAR-4 (Ovarian cancer)): 3.16 µM | GI50 (OVCAR-4 (Ovarian cancer); read-out: GI50): 1.66 µM | CC50 (OVCAR-4 (Ovarian cancer)): 6.02 µM | GI50 (UACC-62 (Melanoma)): 1.84 µM | IC (TGI) (UACC-62 (Melanoma)): 3.39 µM

CC1(C)CC[C@]23CC[C@]4(C)[C@H](CC[C@@H]5[C@@]6(C)CCCNC(C)(C)[C@@H]6CC[C@]54C)[C@H]2[C@H]1OC3 [Compound 7, Azepanoallobetulin]
GI50 (SNB-75 (CNS cancer)): 1.5 µM | IC (TGI) (SNB-75 (CNS cancer)): 2.94 µM | CC50 (SNB-75 (CNS cancer)): 5.76 µM | GI50 (SK-OV-3 (Ovarian cancer)): 2.73 µM | IC (TGI) (SK-OV-3 (Ovarian cancer)): 7.93 µM | CC50 (SK-OV-3 (Ovarian cancer)): 36.9 µM | GI50 [1]: 1.78 µM | IC (TGI) [1]: 3.59 µM | GI50 [2]: 1.61 µM | IC (TGI) [2]: 3.45 µM | CC50 [2]: 7.39 µM | GI50 (ACHN (Renal cancer)): 1.71 µM | IC (TGI) (ACHN (Renal cancer)): 3.08 µM | CC50 (ACHN (Renal cancer)): 5.55 µM | EC50 [3]: n.s. | GI50 (A498 (Renal cancer)): 1.68 µM | IC (TGI) (A498 (Renal cancer)): 3.67 µM | CC50 (A498 (Renal cancer)): 8 µM | IC (TGI) (Colon Cancer subpanel): 3.11 µM | GI50 (Colon Cancer subpanel): 1.58 µM | CC50 (Colon Cancer subpanel): 6.11 µM | GI50 (EKVX (NSC lung cancer)): 1.68 µM | IC (TGI) (EKVX (NSC lung cancer)): 3.37 µM | CC50 (EKVX (NSC lung cancer)): 6.77 µM | GI50 (HCT-116 (Colon cancer)): 1.52 µM | activity at 10 µM (HCT-116 (Colon cancer); HCT-116, 48 h): -99.4% | IC (TGI) (HCT-116 (Colon cancer); HCT-116, 48 h, read-out: TGI): 2.88 µM | CC50 (HCT-116 (Colon cancer); HCT-116, read-out: LC50): 5.47 µM | IC (TGI) (Renal Cancer subpanel): 3.22 µM | GI50 (Renal Cancer subpanel): 1.67 µM | CC50 (Renal Cancer subpanel): 6.21 µM | GI50 [4]: 1.66 µM | IC (TGI) [4]: 3.2 µM | CC50 ([4]; read-out: LC50): 6.17 µM | GI50 (HOP-62 (NSC lung cancer)): 1.91 µM | IC (TGI) (HOP-62 (NSC lung cancer)): 3.75 µM | CC50 (HOP-62 (NSC lung cancer); HOP-62, read-out: LC50): 7.34 µM | GI50 (BT-549 (Breast cancer)): 1.68 µM | IC (TGI) (BT-549 (Breast cancer)): 3.24 µM | GI50 (PC-3 (Prostate cancer)): 1.61 µM | IC (TGI) (PC-3 (Prostate cancer)): 3.17 µM | CC50 (PC-3 (Prostate cancer)): 6.25 µM | GI50 (OVCAR-8 (Ovarian cancer)): 1.87 µM | IC (TGI) (OVCAR-8 (Ovarian cancer)): 3.66 µM | GI50 [5]: 1.64 µM | IC (TGI) [5]: 3.03 µM | CC50 [5]: 5.6 µM | GI50 (SN12C (Renal cancer)): 1.68 µM | IC (TGI) (SN12C (Renal cancer)): 3.2 µM | CC50 (SN12C (Renal cancer); read-out: LC50): 6.1 µM | Positive Cytostatic Effect (cell lines with percent growth 0 to 50 / total) [6]: 16/59 | Positive Cytotoxic Effect (cell lines with percent growth < 0 / total) [6]: 41/58 | number of cancer cell lines the compound was active against [6]: 52 cell lines | activity at 10 µM [6, 7]: -27.3% | activity at 10 µM [6, 8]: -99.4 to 76.4% | IC (TGI) ([6]; Homo sapiens): 3.64 µM | GI50 [6, 9]: 1.68 µM | GI50 [6, 10]: < 3 µM | GI50 [6, 11]: 0.2 to 0.94 µM | CC50 ([6]; Homo sapiens, read-out: LC50 MG_MID60, average over all cell lines): 17.2 µM | Growth % of the Most Sensitive Cell Lines (786-0 (Renal cancer)): −96.23% | GI50 (786-0 (Renal cancer); Homo sapiens): 1.66 µM | IC (TGI) (786-0 (Renal cancer); Homo sapiens): 3.21 µM | CC50 (786-0 (Renal cancer); Homo sapiens, 786-0, read-out: LC50): 6.18 µM | GI50 (OVCAR-4 (Ovarian cancer)): 1.65 µM | IC (TGI) (OVCAR-4 (Ovarian cancer)): 3.12 µM | CC50 (OVCAR-4 (Ovarian cancer)): 5.88 µM | GI50 (UACC-62 (Melanoma)): 1.79 µM | IC (TGI) (UACC-62 (Melanoma)): 3.21 µM | CC50 (UACC-62 (Melanoma); UACC-62, read-out: LC50): 5.77 µM
